Data from paper PMC8276662, “Synergy of alanine and gentamicin to reduce nitric oxide for elevating killing efficacy to antibiotic-resistant Vibrio alginolyticus” (Virulence, 2021).

Biological target: T1, CysJ (rCysJ; NOS-like protein) (Vibrio alginolyticus, UniProt A0A2I3CBL6)
T1 construct: dimer by blue native PAGE
T1 sequence (A0A2I3CBL6 1-623): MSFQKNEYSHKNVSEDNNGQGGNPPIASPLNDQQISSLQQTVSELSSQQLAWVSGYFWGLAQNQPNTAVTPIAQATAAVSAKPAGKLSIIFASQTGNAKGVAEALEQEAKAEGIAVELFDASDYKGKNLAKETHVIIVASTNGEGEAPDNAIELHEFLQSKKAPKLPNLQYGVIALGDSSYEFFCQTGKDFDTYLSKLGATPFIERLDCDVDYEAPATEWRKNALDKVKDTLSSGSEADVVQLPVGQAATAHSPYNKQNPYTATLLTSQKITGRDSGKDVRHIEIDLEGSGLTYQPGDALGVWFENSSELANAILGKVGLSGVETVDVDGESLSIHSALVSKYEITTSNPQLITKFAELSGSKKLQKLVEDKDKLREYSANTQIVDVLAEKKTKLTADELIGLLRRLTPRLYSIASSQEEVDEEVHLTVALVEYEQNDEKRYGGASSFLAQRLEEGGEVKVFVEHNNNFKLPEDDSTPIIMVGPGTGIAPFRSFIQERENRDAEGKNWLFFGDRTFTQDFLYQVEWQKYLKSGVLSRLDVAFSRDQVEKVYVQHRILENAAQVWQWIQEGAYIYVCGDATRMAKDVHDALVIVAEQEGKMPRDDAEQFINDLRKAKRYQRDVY
Assay: colorimetric nitric oxide synthase activity kit, A530
Type: biochemical
Details: 0.5 mM L-NMMA, preincubated 30 C 2 h (as described for lysate proteins); assay 37 C 15 min; mode not stated

For `CNC(=N)NCCC[C@H](N)C(=O)O` [L-NMMA], the “activity of NOS was reduced” value was “When L-NMMA was used, activity of NOS was reduced (Figure 8b)”.
